This is an account of results in BindingDB's records for doi:10.1016/s0014-5793(97)00196-8 (Merck Research Laboratories, 1997).

The test addresses T1, Galanin receptor type 2 (Rattus norvegicus, UniProt O08726).
T1 sequence (O08726 whole entry): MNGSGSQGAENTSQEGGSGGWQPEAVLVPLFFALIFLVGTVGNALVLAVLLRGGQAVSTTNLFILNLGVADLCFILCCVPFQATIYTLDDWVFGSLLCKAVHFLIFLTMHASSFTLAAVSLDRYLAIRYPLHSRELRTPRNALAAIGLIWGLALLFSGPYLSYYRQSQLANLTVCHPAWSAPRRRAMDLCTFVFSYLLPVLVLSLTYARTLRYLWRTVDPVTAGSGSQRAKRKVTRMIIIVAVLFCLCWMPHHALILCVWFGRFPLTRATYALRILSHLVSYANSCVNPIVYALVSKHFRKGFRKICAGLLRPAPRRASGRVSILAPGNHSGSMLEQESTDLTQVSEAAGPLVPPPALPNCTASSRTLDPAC

As a reminder, the Ki is the equilibrium dissociation constant of an inhibitor or competing ligand from its target. Read a low Ki as a stronger hold on the target.

Non-standard residues stand in square brackets, D forms with d. Residues, ends and D or L forms follow the SMILES beside them.

As to `CC(C)C[C@H](NC(=O)[C@H](CC(C)C)NC(=O)[C@@H](Cc1c[nH]c2ccccc12)NC(=O)[C@H](Cc1ccccc1)NC(=O)[C@@H](Cc1c[nH]c2ccccc12)NC(=O)[C@H](CCC(N)=O)NC(=O)[C@H](CCC(N)=O)NC(=O)[C@@H]1CCCN1C(=O)[C@H](CCCCN)NC(=O)[C@@H]1CCCN1C(=O)[C@@H](CCCNC(=N)N)NC(=O)[C@@H]1CCCN1C(=O)CNC(=O)[C@H](CC(C)C)NC(=O)[C@H](CC(C)C)NC(=O)[C@H](Cc1ccc(O)cc1)NC(=O)CNC(=O)[C@H](C)NC(=O)[C@H](CO)NC(=O)[C@H](CC(N)=O)NC(=O)[C@H](CC(C)C)NC(=O)[C@@H](NC(=O)[C@H](Cc1c[nH]c2ccccc12)NC(=O)CN)[C@@H](C)O)C(N)=O` [Gal(1-13)-Std I] (H-GWTLNSAGYLLGP[dR]PKPQQ[dW]F[dW]LL-NH2), affinity was put at a Ki of 23 nM.
Under `CC[C@H](C)[C@H](NC(=O)[C@H](C)NC(=O)[C@H](Cc1c[nH]cn1)NC(=O)[C@@H]1CCCN1C(=O)CNC(=O)[C@H](CC(C)C)NC(=O)[C@H](CC(C)C)NC(=O)[C@H](Cc1ccc(O)cc1)NC(=O)CNC(=O)[C@H](C)NC(=O)[C@H](CO)NC(=O)[C@H](CC(N)=O)NC(=O)[C@H](CC(C)C)NC(=O)[C@@H](N)[C@@H](C)O)C(=O)N[C@@H](CC(=O)O)C(=O)N[C@@H](CC(N)=O)C(=O)N[C@@H](Cc1c[nH]cn1)C(=O)N[C@@H](CCCNC(=N)N)C(=O)N[C@@H](CO)C(=O)N[C@@H](Cc1ccccc1)C(=O)N[C@@H](CO)C(=O)N[C@@H](CC(=O)O)C(=O)N[C@@H](CCCCN)C(=O)N[C@@H](Cc1c[nH]cn1)C(=O)NCC(=O)N[C@@H](CC(C)C)C(=O)N[C@H](C(N)=O)[C@@H](C)O` [Galanin (3-29), rat] stands 1000 nM; under `CC[C@H](C)[C@H](NC(=O)[C@H](C)NC(=O)[C@H](Cc1c[nH]cn1)NC(=O)[C@@H]1CCCN1C(=O)CNC(=O)[C@H](CC(C)C)NC(=O)[C@H](CC(C)C)NC(=O)[C@H](Cc1ccc(O)cc1)NC(=O)CNC(=O)[C@H](C)NC(=O)[C@H](CO)NC(=O)[C@H](CC(N)=O)NC(=O)[C@H](CC(C)C)NC(=O)[C@@H](NC(=O)[C@@H](N)Cc1c[nH]c2ccccc12)[C@@H](C)O)C(=O)N[C@@H](CC(=O)O)C(=O)N[C@@H](CC(N)=O)C(=O)N[C@@H](Cc1c[nH]cn1)C(=O)N[C@@H](CCCNC(=N)N)C(=O)N[C@@H](CO)C(=O)N[C@@H](Cc1ccccc1)C(=O)N[C@@H](CO)C(=O)N[C@@H](CC(=O)O)C(=O)N[C@@H](CCCCN)C(=O)N[C@@H](Cc1c[nH]cn1)C(=O)NCC(=O)N[C@@H](CC(C)C)C(=O)N[C@H](C(N)=O)[C@@H](C)O` [Galanin Porcine 2-29], 2.9 nM; under H-GWTLNSAGYLLGPPPALALA-NH2 [M40], 1.9 nM.
